The values that follow come from patent US20240343727A1, “PYRIDAZINONE OR PYRIDINONE COMPOUNDS, PREPARATION METHODS AND USES THEREOF” (InventisBio Co., Ltd., priority 2021, published 2024).

What is called IC50 is the midpoint of a concentration-inhibition curve.

Structures are written as SMILES. Where only a bound is given, the exact number is not on record here.

This assay has as its target T1, PARP7 (Homo sapiens, UniProt Q7Z3E1).
T1 sequence (Q7Z3E1 1-657): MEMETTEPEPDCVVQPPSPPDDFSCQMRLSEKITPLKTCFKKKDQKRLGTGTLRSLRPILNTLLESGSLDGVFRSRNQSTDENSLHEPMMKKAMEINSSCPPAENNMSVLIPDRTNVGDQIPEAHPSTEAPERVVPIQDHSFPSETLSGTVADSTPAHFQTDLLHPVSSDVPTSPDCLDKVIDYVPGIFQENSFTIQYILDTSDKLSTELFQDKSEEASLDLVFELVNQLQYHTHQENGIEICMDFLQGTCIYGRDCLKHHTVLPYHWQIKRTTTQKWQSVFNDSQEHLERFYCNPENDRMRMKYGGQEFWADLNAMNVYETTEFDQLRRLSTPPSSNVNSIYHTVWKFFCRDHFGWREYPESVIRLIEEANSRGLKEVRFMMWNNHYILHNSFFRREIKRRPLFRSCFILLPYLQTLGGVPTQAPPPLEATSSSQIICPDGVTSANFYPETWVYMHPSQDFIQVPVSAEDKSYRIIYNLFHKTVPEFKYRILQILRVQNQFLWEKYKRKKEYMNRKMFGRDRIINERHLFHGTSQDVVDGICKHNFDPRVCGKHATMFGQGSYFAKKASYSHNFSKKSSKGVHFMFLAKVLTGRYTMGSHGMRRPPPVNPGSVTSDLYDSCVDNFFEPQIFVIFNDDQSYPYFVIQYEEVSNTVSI
Put plainly: PARP7 TR-FRET assay (binding, displacement of biotinylated Probe A). The conditions noted are these: 6 nM PARP7, 2 nM Probe A, 25° C., 30 min. The essentials: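 His-tagged PARP7 at 6 nM was preincubated with compound and 2 nM biotinylated Probe A for 30 min at 25° C (HEPES pH 8.0, NaCl, BSA, DTT, Tween20). Europium-streptavidin/ULight-anti-His FRET was read as the 665/615 nm ratio after a further 30 min. IC50 was fitted from % inhibition normalised to vehicle and blank.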
(TR-FRET usually uses a lanthanide donor and a delayed reading to cut background.)
On to `C[C@@H]1CN(C(=O)CC2CN(c3cc(C(F)(F)F)c(=O)[nH]n3)c3cc(F)ccc3O2)CCN1c1ncc(C#N)cn1` (single isomer, unassigned) [Compound 326], for which the IC50 was 100 to 1000 nM.
Turning to `N#Cc1ccc(N2CCN(C(=O)CC3CN(c4cc(C(F)(F)F)c(=O)[nH]n4)c4cc(C(F)F)ccc4O3)CC2)nc1` (single isomer, unassigned) [Compound 328], the IC50 is below 100 nM.
With `O=C(c1cccc(Oc2n[nH]c(=O)c(C(F)(F)F)c2N2CC3(CCC3)C2)c1)N1CCN(c2nnc(C(F)(F)F)s2)CC1` [Compound 231] the figure was below 100 nM; with `Cc1ccc(C(=O)N2CCN(c3ncc(C(F)(F)F)cn3)CC2)cc1Oc1n[nH]c(=O)c(C(F)(F)F)c1C` [Compound 19], below 100 nM.
`O=C(CC1CN(c2n[nH]c(=O)c3cccnc23)CCO1)N1CCN(c2ncc(C(F)(F)F)cn2)CC1` (single isomer, unassigned) [Compound 124] had an IC50 above 1000 nM.
Then `C[C@@H]1CN(C(=O)c2cc(Oc3n[nH]c(=O)c(C(F)(F)F)c3N3CC4(CCC4)C3)ccn2)CCN1c1ncc(C(F)(F)F)cn1` [Compound 352], with below 100 nM; and `O=C(c1cccc(Oc2n[nH]c(=O)c(C(F)(F)F)c2N2CC3(CCC3)C2)c1)N1CCN(c2ccc(C(F)(F)F)cn2)CC1` [Compound 187], with below 100 nM; and `N#Cc1cnc(N2CCN(C(=O)c3cc(Oc4n[nH]c(=O)c(C(F)(F)F)c4N4CC5(C4)CC(F)(F)C5)ccn3)CC2)nc1` [Compound 305], with below 100 nM.
Regarding `N#Cc1ccc2c(=O)[nH]nc(N3CCOC(CC(=O)N4CCN(c5ncc(C(F)(F)F)cn5)CC4)C3)c2c1` (single isomer, unassigned) [Compound 245], the IC50 was below 100 nM.
The compound `O=C(c1cccc(Oc2n[nH]c(=O)c(C(F)(F)F)c2N2CC3(CCC3)C2)c1)N1CCN(c2cnc(C(F)F)cn2)CC1` [Compound 189] yielded an IC50 below 100 nM.
For `O=C(CCO[C@@H]1CCNc2c1n[nH]c(=O)c2C(F)(F)F)N1CCN(c2ncc(C(F)(F)F)cn2)CC1` (single isomer, unassigned) [Compound 6], the IC50 was below 100 nM.
Compound `N#Cc1ccc2c(c1)N(c1cc(C(F)(F)F)c(=O)[nH]n1)CC(CC(=O)N1CCN(c3ncc(C(F)(F)F)cn3)CC1)O2` (single isomer, unassigned) [Compound 200] came in with a concentration for half-maximal inhibition (IC50) below 100 nM.
Then `C[C@@H]1CN(c2n[nH]c(=O)c3c(F)cccc23)C[C@@H](CC(=O)N2CCN(c3ncc(C(F)(F)F)cn3)CC2)O1` (stereo in doubt) [Compound 96], with 100 to 1000 nM; and `N#Cc1ccc(N2CCN(C(=O)c3cc(Oc4n[nH]c(=O)c(C(F)(F)F)c4N4CC5(CCC5)C4)ccn3)CC2)nc1` [Compound 274], with below 100 nM.
For `C[C@@H]1CN(C(=O)c2cc(Oc3n[nH]c(=O)c(C(F)(F)F)c3N3CC(O)C3)ccn2)CCN1c1ncc(C(F)(F)F)cn1` [Compound 340], the half-inhibitory concentration (IC50) was below 100 nM.
As for `Cc1c(N(C)c2cccc(C(=O)N3CCN(c4ncc(C(F)(F)F)cn4)CC3)c2)n[nH]c(=O)c1C(F)(F)F` [Compound 77], the IC50 is below 100 nM.
`CNc1c(Oc2cccc(C(=O)N3CCN(c4ncc(C(F)(F)F)cn4)CC3)c2)n[nH]c(=O)c1C(C)=O` [Compound 74]: the 50% inhibitory concentration (IC50) was above 1000 nM.
`O=C(CO[C@H]1CCNc2c1n[nH]c(=O)c2C(F)(F)F)N1CCN(c2ncc(C(F)(F)F)cn2)CC1` (single isomer, unassigned) [Compound 3]: the IC50 is 100 to 1000 nM.
As for `COC1CN(c2c(Oc3ccnc(C(=O)N4CCN(c5ncc(C(F)(F)F)cn5)CC4)c3)n[nH]c(=O)c2C(F)(F)F)C1` [Compound 315], the IC50 was below 100 nM.
Turning to `CN1CC[C@@H](OCC(=O)N2CCN(c3ncc(C(F)(F)F)cn3)CC2)c2n[nH]c(=O)c(C(F)(F)F)c21` (single isomer, unassigned) [Compound 4], the IC50 is below 100 nM.
Take `CC(C)(O)c1cnc(N2CCN(C(=O)CC3CN(c4cc(C(F)(F)F)c(=O)[nH]n4)c4cc(F)ccc4O3)CC2)nc1` (single isomer, unassigned) [Compound 348]: the IC50 is below 100 nM.
Then `C[C@@H]1CN(C(=O)CC2CN(c3cc(C(F)(F)F)c(=O)[nH]n3)c3cc(Cl)ccc3O2)CCN1c1ncc(C#N)cn1` (single isomer, unassigned) [Compound 329], with below 100 nM.
In turn, `O=C(CC1CN(c2cc(C(F)(F)F)c(=O)[nH]n2)c2ccc(F)cc2O1)N1CCN(c2ncc(C(F)(F)F)cn2)CC1` (single isomer, unassigned) [Compound 158] registered an IC50 of 100 to 1000 nM.
In turn, `O=C(CC1CN(c2cc(C(F)(F)F)c(=O)[nH]n2)c2ccccc2O1)N1CCN(c2ccc(Cl)cn2)CC1` (single isomer, unassigned) [Compound 261] displayed an IC50 below 100 nM.
`O=C(c1cc(Oc2n[nH]c(=O)c(C(F)(F)F)c2N2CC3(C2)CC(F)(F)C3)ccn1)N1CCN(c2ccc(C(F)(F)F)cn2)CC1` [Compound 148] gave an IC50 below 100 nM.
With `N#Cc1ccc(N2CCN(C(=O)CC3CN(c4cc(C(F)(F)F)c(=O)[nH]n4)c4cc(F)ccc4O3)CC2)nc1` (single isomer, unassigned) [Compound 268] the figure was below 100 nM; with `N#Cc1ccc2c(c1)N(c1cc(C(F)(F)F)c(=O)[nH]n1)CC(CC(=O)N1CCN(c3ncc(C(F)F)cn3)CC1)O2` (single isomer, unassigned) [Compound 219], below 100 nM; with `O=C(c1cccc(Oc2n[nH]c(=O)c(C(F)(F)F)c2N2CC3(CCC3)C2)c1)N1CCC(F)(F)CC1` [Compound 159], 100 to 1000 nM.
`O=C(CC1CN(c2n[nH]c(=O)c3c(F)cc(Cl)cc23)CCO1)N1CCN(c2ncc(C(F)(F)F)cn2)CC1` (stereo not shown) [Compound 242] yielded an IC50 below 100 nM.
`Cn1cc(-c2ccc3c(c2)N(c2cc(C(F)(F)F)c(=O)[nH]n2)CC(CC(=O)N2CCN(c4ncc(C(F)(F)F)cn4)CC2)O3)cn1` (single isomer, unassigned) [Compound 192]: the IC50 is below 100 nM.
Then `O=C(CC1CN(c2cc(C(F)(F)F)c(=O)[nH]n2)c2cc(C(F)F)ccc2O1)N1CCN(c2ncc(C(F)(F)F)cn2)CC1` (single isomer, unassigned) [Compound 227], with below 100 nM; and `CCOC1CN(c2c(Oc3cccc(C(=O)N4CCN(c5ncc(C(F)(F)F)cn5)CC4)c3)n[nH]c(=O)c2C(F)(F)F)C1` [Compound 214], with below 100 nM; and `O=C(CC1CN(c2n[nH]c(=O)c3cc(Cl)ccc23)CCO1)N1CCN(c2ncc(C(F)(F)F)cn2)CC1` (single isomer, unassigned) [Compound 121], with 100 to 1000 nM.
In turn, `O=C(CC1CN(c2cc(C(F)(F)F)c(=O)[nH]n2)c2cc(F)ccc2O1)N1CCN(c2ncc(C(F)(F)F)cn2)CC1` (single isomer, unassigned) [Compound 130] registered an IC50 below 100 nM.
As to `Cc1c(N2C[C@H](CC(=O)N3CCN(c4ncc(C(F)(F)F)cn4)CC3)O[C@H](C)C2)n[nH]c(=O)c1C(F)(F)F` (stereo in doubt) [Compound 41], the IC50 was below 100 nM.
In turn, `N#Cc1ccc2c(N3CCOC(CC(=O)N4CCN(c5ncc(C(F)(F)F)cn5)CC4)C3)n[nH]c(=O)c2c1` (stereo not shown) [Compound 243] gave an IC50 of 100 to 1000 nM.
With `O=C(COC1CCOc2c1n[nH]c(=O)c2C(F)(F)F)N1CCN(c2ncc(C(F)(F)F)cn2)CC1` (single isomer, unassigned) [Compound 10] the figure was below 100 nM.
